Assay results reported in patent US7462600B2, “Macrolides” (Pfizer Inc, priority 2004, dated 2008).
Converted amounts (≈) assume the structure as drawn. Like-named read-outs stand apart in the source and are kept apart here.

Key:
Assay type in all cases: cell-based
[1] = system: Streptococcus pyogenes 1079; test: MIC, microtiter broth dilution (NCCLS M100-S14), S. pyogenes 1079 (ermB)
How it was run: (§1)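 Broth dilution was run in microtiter trays and read per NCCLS M100-S14 to give MICs. Compounds came from 40 mg/ml DMSO stock solutions. The strain panel paired macrolide-susceptible parents with macrolide-resistant derivatives.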

[2] = system: Streptococcus pneumoniae 1016; test: MIC, microtiter broth dilution (NCCLS M100-S14), S. pneumoniae 1016 (susceptible)
How it was run: as §1

[3] = system: Streptococcus pneumoniae 1175; conditions: microtiter broth dilution
How it was run: as §1

[4] = system: Streptococcus pneumoniae 1095; conditions: microtiter broth dilution
How it was run: as §1

[5] = system: Haemophilus influenzae 1218; test: MIC, microtiter broth dilution (NCCLS M100-S14), H. influenzae 1218 (susceptible)
How it was run: as §1

[6] = S. pneumoniae 1016 (susceptible)
[7] = H. influenzae 1218 (susceptible)

Compound | MIC S. pyogenes 1079 ([1]; Streptococcus pyogenes 1079) | MIC S. pneumo. 1016 ([2]; Streptococcus pneumoniae 1016) | MIC S. pneumo. 1175 ([3]; Streptococcus pneumoniae 1175) | MIC S. pneumo. 1095 ([4]; Streptococcus pneumoniae 1095) | MIC H. influenzae 1218 ([5]; Haemophilus influenzae 1218) | MIC S. pyogenes 1079 ([1]; S. pyogenes 1079 (ermB)) | MIC S. pneumo. 1016 [2, 6] | MIC S. pneumo. 1175 ([3]; S. pneumoniae 1175 (mefA)) | MIC S. pneumo. 1095 ([4]; S. pneumoniae 1095 (ermB)) | MIC H. influenzae 1218 [5, 7]
CCC1OC(=O)C(C)C(=O)C(C)C(OC2OC(C)CC(N(C)C)C2O)C(C)(OC)CC(C)C(=O)C(C)C2N(C3CN(Cc4c(OC)cnc5ccccc45)C3)C(=O)OC12C (stereo not drawn) [Example 1.71, 3-descladinosyl-11,12-dideoxy-6-O-methyl-3-oxo-12,11-(oxycarbonyl-(1-(3-methoxyquinoline-4-methyl)-azetidin-3-yl)-imino)-erythromycin A] | <0.063 µg/mL | <0.063 µg/mL | <0.063 µg/mL | <0.063 µg/mL | 1 µg/mL (≈ 1.19 µM) |  |  |  |  | 
CCC1OC(=O)C(C)C(=O)C(C)C(OC2OC(C)CC(N(C)C)C2O)C(C)(OC)CC(C)C(=O)C(C)C2N(C3CN(C(c4ccccc4)c4cccnc4)C3)C(=O)OC12C (single isomer, unassigned) [Example 1.66, phenyl-(pyridin-3-yl)methyl (*)] | 64 µg/mL (≈ 76.6 µM) | <0.06 µg/mL | <0.06 µg/mL | 0.5 µg/mL (≈ 0.599 µM) | 2 µg/mL (≈ 2.4 µM) |  |  |  |  | 
CCC1OC(=O)C(C)C(=O)C(C)C(OC2OC(C)CC(N(C)C)C2O)C(C)(OC)CC(C)C(=O)C(C)C2N(C3CN(Cc4cccc5nc[nH]c45)C3)C(=O)OC12C (stereo not drawn) [Example 1.11, 3-descladinosyl-11,12-dideoxy-6-O-methyl-3-oxo-12,11-(oxycarbonyl-(1-((1H-benzoimidazol-7-yl)-methy)-azetidin-3-yl)-imino)-erythromycin A] | 4 µg/mL (≈ 5.01 µM) | <0.06 µg/mL | 0.5 µg/mL (≈ 0.627 µM) | <0.06 µg/mL | <0.06 µg/mL |  |  |  |  | 
CCC1OC(=O)C(C)C(=O)C(C)C(OC2OC(C)CC(N(C)C)C2O)C(C)(OC)CC(C)C(=O)C(C)C2N(CC3CN(C(=O)c4ccnc5nc[nH]c45)C3)C(=O)OC12C.O=CO (stereo not drawn) [4.45] | >64.00 µg/mL | <0.06 µg/mL | 4 µg/mL | >64.00 µg/mL | 16 µg/mL |  |  |  |  | 
CCC1OC(=O)C(C)C(=O)C(C)C(OC2OC(C)CC(N(C)C)C2O)C(C)(OC)CC(C)C(=O)C(C)C2N(C3CCN(Cc4n[nH]c5ccccc45)C3)C(=O)OC12C [Example 9.09, 3-descladinosyl-11,12-dideoxy-6-O-methyl-3-oxo-12,11-(oxycarbonyl-(1-((1H-indazol-3-yl)-methyl)-(R)-pyrrolidin-3-yl)-imino)-erythromycin A] |  |  |  |  |  | 2 µg/mL (≈ 2.46 µM) | <0.06 µg/mL | 0.12 µg/mL (≈ 0.148 µM) | 0.25 µg/mL (≈ 0.308 µM) | 0.12 µg/mL (≈ 0.148 µM)
CCC1OC(=O)C(C)C(=O)C(C)C(OC2OC(C)CC(N(C)C)C2O)C(C)(OC)CC(C)C(=O)C(C)C2N(C3CN(Cc4ccnc(-c5nc(C)no5)c4)C3)C(=O)OC12C (stereo not drawn) [Example 1.46, (2-[3-methyl-(1,2,4)oxadiazol-5-yl]pyridin-4-yl)methyl] | >64.00 µg/mL | <0.06 µg/mL | 0.25 µg/mL (≈ 0.297 µM) | <0.06 µg/mL | 8 µg/mL (≈ 9.51 µM) |  |  |  |  | 
CCC1OC(=O)C(C)C(=O)C(C)C(OC2OC(C)CC(N(C)C)C2O)C(C)(OC)CC(C)C(=O)C(C)C2N(CC3CN(Cc4n[nH]c5cc(Cl)ccc45)C3)C(=O)OC12C (stereo not drawn) [4.23] | 16 µg/mL (≈ 18.9 µM) | <0.06 µg/mL | 0.12 µg/mL (≈ 0.142 µM) | 4 µg/mL (≈ 4.73 µM) | <0.06 µg/mL |  |  |  |  | 
CCC1OC(=O)C(C)C(=O)C(C)C(OC2OC(C)CC(N(C)C)C2O)C(C)(OC)CC(C)C(=O)C(C)C2N(CC3C4CN(C(=O)OC(C)(C)C)CC43)C(=O)OC12C (stereo not drawn) [16.01] |  |  |  |  |  | >100.00 µg/mL | 0.25 µg/mL (≈ 0.309 µM) | 25 µg/mL (≈ 30.9 µM) | 50 µg/mL (≈ 61.9 µM) | 1.56 µg/mL (≈ 1.93 µM)
3-descladinosyl-11,12-dideoxy-6-O-methyl-3-oxo-12,11-(oxycarbonyl-(1-((1H-benzo[d]imidazol-4-yl)-methyl)-(R)-pyrrolidin-3-yl)-imino)-erythromycin A [Example 9.06] |  |  |  |  |  | 4 µg/mL | <0.06 µg/mL | <0.06 µg/mL | <0.06 µg/mL | 0.25 µg/mL
CCC1OC(=O)C(C)C(=O)C(C)C(OC2OC(C)CC(N(C)C)C2O)C(C)(OC)CC(C)C(=O)C(C)C2N(C3CN(C(=O)c4ccc(-n5cccn5)nc4)C3)C(=O)OC12C (stereo not drawn) [Example 2.20] | >64.00 µg/mL | <0.06 µg/mL | 0.12 µg/mL (≈ 0.143 µM) | 1 µg/mL (≈ 1.19 µM) | 16 µg/mL (≈ 19.1 µM) |  |  |  |  | 
CC[C@H]1OC(=O)[C@H](C)[C@@H](OC(=O)N2CCCC2C)[C@H](C)[C@@H](O[C@@H]2O[C@H](C)C[C@H](N(C)C)[C@H]2O)[C@](C)(OC)C[C@@H](C)C(=O)[C@H](C)[C@H]2N(CC3CN(Cc4cccc5cccnc45)C3)C(=O)O[C@]12C (stereo partly drawn) [Example 5.04] | 4 µg/mL (≈ 4.27 µM) | <0.06 µg/mL | <0.06 µg/mL | <0.06 µg/mL | 1 µg/mL (≈ 1.07 µM) |  |  |  |  | 
CC[C@H]1OC(=O)[C@H](C)C(=O)[C@H](C)[C@@H](O[C@@H]2O[C@H](C)C[C@H](N(C)C)[C@H]2O)[C@](C)(OC)C[C@@H](C)C(=O)[C@H](C)[C@H]2N(CC3(C)CN(Cc4c[nH]nc4-c4ccccc4)C3)C(=O)O[C@]12C [6.09] | >64.00 µg/mL | <0.06 µg/mL | 0.25 µg/mL (≈ 0.293 µM) | <0.06 µg/mL | 0.5 µg/mL (≈ 0.587 µM) |  |  |  |  | 
CCC1OC(=O)C(C)C(=O)C(C)C(OC2OC(C)CC(N(C)C)C2O)C(C)(OC)CC(C)C(=O)C(C)C2N(C3CN(S(=O)(=O)c4cccc(Cl)c4)C3)C(=O)OC12C (stereo not drawn) [Example 3.107, 3-descladinosyl-11,12-dideoxy-6-O-methyl-3-oxo-12,11-(oxycarbonyl-(1-(3-chlorobenzene-1-sulfonyl)-azetidin-3-yl)-imino)-erythromycin A] | 1 µg/mL (≈ 1.19 µM) | <0.063 µg/mL | <0.063 µg/mL | <0.063 µg/mL | 025 µg/mL (≈ 29.7 µM) |  |  |  |  | 
CCC1OC(=O)C(C)C(=O)C(C)C(OC2OC(C)CC(N(C)C)C2O)C(C)(OC)CC(C)C(=O)C(C)C2N(CC3CCN(Cc4cnc(-c5ccccc5)[nH]4)CC3)C(=O)OC12C (stereo not drawn) [15.08] |  |  |  |  |  | >64.00 µg/mL | <0.06 µg/mL | 1 µg/mL (≈ 1.15 µM) | >64.00 µg/mL | 2 µg/mL (≈ 2.31 µM)
CCC1OC(=O)C(C)C(=O)C(C)C(OC2OC(C)CC(N(C)C)C2O)C(C)(OC)CC(C)C(=O)C(C)C2N(C3CN(S(=O)(=O)c4ccc(-n5ccnc5)c(C#N)c4)C3)C(=O)OC12C (stereo not drawn) [Example 3.64] | 32 µg/mL (≈ 35.6 µM) | <0.06 µg/mL | <0.06 µg/mL | <0.06 µg/mL | 0.5 µg/mL (≈ 0.556 µM) |  |  |  |  | 
CCC1OC(=O)C(C)C(=O)C(C)C(OC2OC(C)CC(N(C)C)C2O)C(C)(OC)CC(C)C(=O)C(C)C2N(CC3(O)CCN(Cc4c[nH]c5ncccc45)CC3)C(=O)OC12C (stereo not drawn) [Example 14.01, (1H-pyrrolo[2,3-b]pyridin-3-yl)methyl] |  |  |  |  |  | >64.00 µg/mL | <0.06 µg/mL | 1 µg/mL (≈ 1.17 µM) | 32 µg/mL (≈ 37.4 µM) | 4 µg/mL (≈ 4.67 µM)
CCC1OC(=O)C(C)C(=O)C(C)C(OC2OC(C)CC(N(C)C)C2O)C(C)(OC)CC(C)C(=O)C(C)C2N(CC3CCCN3C(=O)c3cc4cccnc4nc3C)C(=O)OC12C (stereo not drawn) [10.39] |  |  |  |  |  | >64.00 µg/mL | <0.06 µg/mL | 0.5 µg/mL (≈ 0.577 µM) | <0.06 µg/mL | 2 µg/mL (≈ 2.31 µM)
CCC1OC(=O)C(C)C(=O)C(C)C(OC2OC(C)CC(N(C)C)C2O)C(C)(OC)CC(C)C(=O)C(C)C2N(C3CN(C(=O)Nc4cc(-c5cncc(C)c5)n[nH]4)C3)C(=O)OC12C (stereo not drawn) [Example 2.08] | 32 µg/mL (≈ 36.9 µM) | <0.06 µg/mL | 16 µg/mL (≈ 18.4 µM) | 1 µg/mL (≈ 1.15 µM) | 8 µg/mL (≈ 9.22 µM) |  |  |  |  | 
